#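 Test compounds were applied to cells in 96-well plates for 48 hours at 5 doses. GI50: concentration for 50% inhibition of growth.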 The source made the active and inactive calls. Rule as the data show it: active = GI50 up to about 1.1 µM and inactive = higher.
# Columns and labels:
# Test in all cases: growth of human tumour cells (NCI), 48 h
# A549 = tested on: A549
# HT-29 = tested on: HT-29
# UACC-62 = tested on: UACC-62
# SNB-19 = tested on: SNB-19
# NCI-H226 = tested on: NCI-H226
# CCRF-CEM = tested on: CCRF-CEM
# COLO 205 = tested on: COLO 205
# LXFL 529 = tested on: LXFL 529
# KM12 = tested on: KM12
# HCT-15 = tested on: HCT-15
# SK-MEL-2 = tested on: SK-MEL-2
# M14 = tested on: M14
# RXF 631 = tested on: RXF 631
# SK-MEL-28 = tested on: SK-MEL-28
# A498 = tested on: A498
# K562 = tested on: K562
# SF-295 = tested on: SF-295
# Malme-3M = tested on: Malme-3M
# DMS-114 = tested on: DMS-114
# SNB-78 = tested on: SNB-78
# SF-268 = tested on: SF-268
# SN12C = tested on: SN12C
# SK-MEL-5 = tested on: SK-MEL-5
# DLD-1 = tested on: DLD-1
# RXF 393 = tested on: RXF 393
# SK-OV-3 = tested on: SK-OV-3
# UO-31 = tested on: UO-31
# HCT-116 = tested on: HCT-116
# RPMI-8226 = tested on: RPMI-8226
# M19-MEL = tested on: M19-MEL
# LOX IMVI = tested on: LOX IMVI
# U-251 = tested on: U-251
# HCC 2998 = tested on: HCC 2998
# OVCAR-3 = tested on: OVCAR-3
# OVCAR-4 = tested on: OVCAR-4
# HL-60 = tested on: HL-60
# NCI-H522 = tested on: NCI-H522
# NCI-H460 = tested on: NCI-H460
# SW-620 = tested on: SW-620
# HOP-92 = tested on: HOP-92
# CAKI-1 = tested on: CAKI-1
# MOLT-4 = tested on: MOLT-4
# HOP-62 = tested on: HOP-62
# TK-10 = tested on: TK-10
# 786-0 = tested on: 786-0
# KM-20L2 = tested on: KM-20L2
# OVCAR-8 = tested on: OVCAR-8
# UACC-257 = tested on: UACC-257
# ACHN = tested on: ACHN
# DMS-273 = tested on: DMS-273
# SNB-75 = tested on: SNB-75
# SF-539 = tested on: SF-539
# OVCAR-5 = tested on: OVCAR-5
# NCI-H23 = tested on: NCI-H23
# IGROV-1 = tested on: IGROV-1
smiles,measurement,setting,value
Sc1nnc(COc2ccc(Cl)cc2)[nH]1,GI50,A549,> 100 µM (inactive)
same,GI50,HT-29,> 100 µM (inactive)
same,GI50,UACC-62,> 100 µM (inactive)
same,GI50,SNB-19,> 100 µM (inactive)
same,GI50,NCI-H226,> 100 µM (inactive)
same,GI50,CCRF-CEM,> 100 µM (inactive)
same,GI50,COLO 205,> 100 µM (inactive)
same,GI50,LXFL 529,> 100 µM (inactive)
same,GI50,KM12,> 100 µM (inactive)
same,GI50,HCT-15,> 100 µM
same,GI50,SK-MEL-2,> 100 µM (inactive)
same,GI50,M14,> 100 µM (inactive)
same,GI50,RXF 631,> 100 µM (inactive)
same,GI50,SK-MEL-28,> 100 µM (inactive)
same,GI50,A498,> 100 µM (inactive)
same,GI50,K562,> 100 µM (inactive)
same,GI50,SF-295,> 100 µM (inactive)
same,GI50,Malme-3M,> 100 µM (inactive)
same,GI50,DMS-114,> 100 µM (inactive)
same,GI50,SNB-78,> 100 µM (inactive)
same,GI50,SF-268,> 100 µM (inactive)
same,GI50,SN12C,> 100 µM (inactive)
same,GI50,SK-MEL-5,> 100 µM (inactive)
same,GI50,DLD-1,> 100 µM (inactive)
same,GI50,RXF 393,> 100 µM (inactive)
same,GI50,SK-OV-3,> 100 µM (inactive)
same,GI50,UO-31,> 100 µM (inactive)
same,GI50,HCT-116,> 100 µM (inactive)
same,GI50,RPMI-8226,> 100 µM (inactive)
same,GI50,M19-MEL,> 100 µM (inactive)
same,GI50,LOX IMVI,> 100 µM (inactive)
same,GI50,U-251,> 100 µM (inactive)
same,GI50,HCC 2998,> 100 µM (inactive)
same,GI50,OVCAR-3,> 100 µM (inactive)
same,GI50,OVCAR-4,> 100 µM (inactive)
same,GI50,HL-60,> 100 µM (inactive)
same,GI50,NCI-H522,> 100 µM (inactive)
same,GI50,NCI-H460,> 100 µM (inactive)
same,GI50,SW-620,> 100 µM (inactive)
same,GI50,HOP-92,> 100 µM (inactive)
same,GI50,CAKI-1,> 100 µM (inactive)
same,GI50,MOLT-4,> 100 µM (inactive)
same,GI50,HOP-62,> 100 µM (inactive)
same,GI50,TK-10,> 100 µM (inactive)
same,GI50,786-0,> 100 µM (inactive)
same,GI50,KM-20L2,> 100 µM (inactive)
same,GI50,OVCAR-8,> 100 µM (inactive)
same,GI50,UACC-257,> 100 µM (inactive)
same,GI50,ACHN,> 100 µM (inactive)
same,GI50,DMS-273,> 100 µM (inactive)
same,GI50,SNB-75,> 100 µM (inactive)
same,GI50,SF-539,> 100 µM (inactive)
same,GI50,OVCAR-5,> 100 µM (inactive)
same,GI50,NCI-H23,> 100 µM (inactive)
same,GI50,IGROV-1,> 100 µM (inactive)

# Reference: ChEMBL document CHEMBL1201862, “PubChem BioAssay data set” (2004)
